One assay has as its system BA/F3 (insSVD) cells. Put plainly: Ba/F3-EGFR-insSVD cell survival assay (Cell Titer-Glo). The settings on record: Mus musculus, BaF3, 48 h. The assay is classed as cell-based. In a few lines: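 Ba/F3 cells stably expressing retroviral EGFR-insSVD or insSVD T790M, grown without IL-3 on 10 ng/ml EGF, 4000 cells/well. Compound pinned in, 48 h at 37° C. Viability by CellTiter-Glo luminescence.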
(In general: ATP-based viability assays read luminescence as a measure of living cells.)

The target of assay [1] is T1, mutEGFR (D770_N771insSVD) (Homo sapiens, UniProt P00533, DUP768-770).
T1 construct: GST-EGFR #3 (SVD between D770 and N771); made in house; host or cells: Sf9 insect cells (baculovirus)
The assay can be described thus: Exon20-Mutant-EGFR (D770_N771insSVD) kinase assay (TR-FRET). Type of assay: biochemical. (Time-resolved FRET reads energy transfer from a long-lived donor to a nearby acceptor.)

Assay [2] concerns the target T2, mutEGFR (D770_N771insNPG, T790) (Homo sapiens, UniProt P00533, INS770NPG/T790M).
T2 construct: exact insNPG construct not described; in-house EGFR proteins were N-terminal GST fusions from baculovirus/insect cells (borders R669-A1210 given only for WT, insSVD, insASV)
Put plainly: mutEGFR (D770_N771insNPG, T790) kinase assay. Type of assay: biochemical. From the text: The different EGFR proteins used in the biochemical kinase activity inhibition assays were generated inhouse by expression in insect cells using Baculo Virus system and subsequent purification as described in the following paragraphs.
The cDNAs encoding the various protein sequences from human EGFR human (P00533) were optimized for expression in eukaryotic cells and synthesized by the GeneArt Technology at Life Technologies.

Assay [3] concerns BA/F3 (EGFR D770_N771 insSVD T790M) cells. Put plainly: Ba/F3-EGFR-insSVD T790M cell survival assay (Cell Titer-Glo). The assay is classed as cell-based. The settings on record: Ba/F3 EGFR-D770-N771ins_SVD, 48 h. How it is done: Cellular Data Description (WT, insSVD, insSVD T790M) 293T cells from ATCC were transfected with pBABEpuro expression constructs for WT EGFR or EGFR-insSVD, or EGFR-insSVD T790M, and pCL-Eco packaging vector using Fugene-6 transfection reagent from Promega. Plates were incubated at 37° C. for 48 h. Retrovirus was harvested by filtering the media supernatant through a 0.45 μm filter.
Ba/F3 cells purchased from DSMZ were grown in RPMI+10% FBS+10 ng/ml IL-3 and infected with filtered retroviral supernatant at a 1:2 dilution. Polybrene was added to a concentration of 8 μg/mL, plates were spun for 90 min, and incubated for 16 h at 37° C. 2 μg/mL puromycin was added to the infected cells 24 h after infection and cells were continually grown in the presence of puromycin and 10 ng/ml IL-3. Following stably expressing Ba/F3 cell lines were generated: Ba/F3-EGFR-WT, Ba/F3-EGFR-insSVD, Ba/F3-EGFR-insSVD T790M, (Ba/F3-vector-control).
For cell survival assays, Ba/F3 cells were grown to a density of 1-2 million cells per mL, spun down and resuspended in media without IL-3, and replated at a concentration of 200,000-500,000 cells per mL. The cells ectopically expressing WT EGFR, EGFR-insSVD, or EGFR-insSVD T790M were plated with 10 ng/ml Millipore Culture grade EGF. The cells ectopically expressing pBABEpuro empty vector were plated with 10 ng/mL IL-3.
2 days later, cells were plated in 50 µL in a 384 well plate at a concentration of 4000 cells per well for cells assayed in the absence of IL-3 and 2000 cells per well for cells assayed in the presence of IL-3. 100 nL of compound was added to each well using a 100 nL pin head, and plates were incubated at 37° C. for 48 h.
Cell viability was measured by adding 20 μL of Cell Titer-Glo Luminescent Cell Viability Reagent diluted 1:3 in PBS. Plates were sealed with Perkin Elmer Top-Seal, inverted several times to mix, and immediately centrifuged at 1000 rpm for 2 min. Plates were incubated in low light conditions for 8-10 min and luminescence was measured.

The mark [4] stands for this setting: Table 3a, cell survival, Cell Titer-Glo, with 10 ng/ml EGF, without IL-3.
Setting [5] is: mutEGFR (D770_N771insSVD) kinase assay IC50, Table 2a, D770_N771insSVD, 2 mM ATP.
Where [6] appears, read: mutEGFR (D770_N771insSVD) kinase assay IC50, Table 2b (from US Priority Patent Application), mutEGFR D770_N771insSVD.
The mark [7] stands for this setting: Table 2b (from US Priority Patent Application), mutEGFR D770_N771insNPG.
[8] abbreviates: Table 3b, Ba/F3 EGFR-insSVD T790M.

T2 sequence (P00533 with tags, fused parts or gaps INS770NPG/T790M limits assumed): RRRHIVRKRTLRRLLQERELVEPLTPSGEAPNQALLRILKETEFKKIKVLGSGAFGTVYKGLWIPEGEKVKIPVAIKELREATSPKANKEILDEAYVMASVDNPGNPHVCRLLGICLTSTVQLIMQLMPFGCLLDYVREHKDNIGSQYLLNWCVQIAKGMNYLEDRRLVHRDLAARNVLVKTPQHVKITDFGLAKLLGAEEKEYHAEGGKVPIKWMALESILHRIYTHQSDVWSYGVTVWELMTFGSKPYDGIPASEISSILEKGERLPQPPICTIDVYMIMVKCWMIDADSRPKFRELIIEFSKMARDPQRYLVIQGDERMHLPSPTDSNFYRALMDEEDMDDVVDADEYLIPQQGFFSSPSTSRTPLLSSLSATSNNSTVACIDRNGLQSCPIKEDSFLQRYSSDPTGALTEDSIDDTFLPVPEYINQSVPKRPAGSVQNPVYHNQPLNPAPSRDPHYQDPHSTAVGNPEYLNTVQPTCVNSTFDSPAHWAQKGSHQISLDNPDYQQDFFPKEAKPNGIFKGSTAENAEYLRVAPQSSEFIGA
T1 sequence (P00533 with tags, fused parts or gaps DUP768-770): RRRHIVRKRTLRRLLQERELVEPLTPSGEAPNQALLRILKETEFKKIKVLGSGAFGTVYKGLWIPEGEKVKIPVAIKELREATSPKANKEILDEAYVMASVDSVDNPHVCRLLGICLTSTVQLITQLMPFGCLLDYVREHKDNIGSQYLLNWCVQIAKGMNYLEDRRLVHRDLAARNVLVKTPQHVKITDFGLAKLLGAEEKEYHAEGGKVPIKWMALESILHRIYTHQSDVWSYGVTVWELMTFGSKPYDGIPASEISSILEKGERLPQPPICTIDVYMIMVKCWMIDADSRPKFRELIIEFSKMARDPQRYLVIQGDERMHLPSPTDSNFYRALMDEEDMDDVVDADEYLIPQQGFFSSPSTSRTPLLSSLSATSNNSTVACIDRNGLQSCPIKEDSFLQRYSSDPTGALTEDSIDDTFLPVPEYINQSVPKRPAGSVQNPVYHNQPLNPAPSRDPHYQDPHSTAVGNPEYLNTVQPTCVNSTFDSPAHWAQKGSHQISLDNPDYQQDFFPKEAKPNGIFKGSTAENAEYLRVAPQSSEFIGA

For orientation: IC50 means the concentration that gives 50% inhibition. `C=CC(=O)N1CCn2nc(-c3ccc(Cl)cc3F)c(-c3ccncc3)c2C1` [Example 37, 1-[2-(4-chloro-2-fluorophenyl)-3-(pyridin-4-yl)-6,7-dihydropyrazolo[1,5-a]pyrazin-5(4H)-yl]prop-2-en-1-one]: the IC50 in the assay with BA/F3 (insSVD) cells (setting [4]) was determined as 7.14 nM; in assay [1] (setting [5]), 0.258 nM; in assay [2] (Table 2a, D770_N771insNPG), 0.658 nM; in assay [3] (setting [4]), 104 nM.
In the case of `CN(C)CC#CC(=O)N1CCn2nc(-c3ccc(F)cc3)c(-c3ccncc3)c2C1` [Example 65, 4-(dimethylamino)-1-[2-(4-fluorophenyl)-3-(pyridin-4-yl)-6,7-dihydropyrazolo[1,5-a]pyrazin-5(4H)-yl]but-2-yn-1-one], the IC50 stood at 15.3 nM in the assay on BA/F3 (insSVD) cells (setting [4]); 0.382 nM in assay [1] (setting [5]); 0.952 nM in assay [2] (Table 2a, D770_N771insNPG); 1010 nM in assay [3] (setting [4]).
In the case of `C=CC(=O)N1Cc2c(-c3ccncc3)c(-c3ccc(F)cc3)nn2C(CO)C1` (racemic) [Example 203, 1-[(7RS)-2-(4-fluorophenyl)-7-(hydroxymethyl)-3-(pyridin-4-yl)-6,7-dihydropyrazolo[1,5-a]pyrazin-5(4H)-yl]prop-2-en-1-one], the IC50 is 17.4 nM with BA/F3 (insSVD) cells (setting [4]); 0.409 nM in assay [1] (setting [5]); 1.42 nM in assay [2] (Table 2a, D770_N771insNPG); 108 nM in assay [3] (setting [4]).
In the case of `C=CC(=O)N1CCn2nc(-c3ccc(Cl)c(Cl)c3)c(-c3ccncc3)c2C1` [Example 40, 1-[2-(3,4-dichlorophenyl)-3-(pyridin-4-yl)-6,7-dihydropyrazolo[1,5-a]pyrazin-5(4H)-yl]prop-2-en-1-one], the IC50 in the assay on BA/F3 (insSVD) cells (setting [4]) is 14.9 nM; in assay [1] (setting [5]), 0.0982 nM; in assay [2] (Table 2a, D770_N771insNPG) it was 0.148 nM; in assay [3] (setting [4]), 56 nM.
On to `C=CC(=O)N1CCn2nc(-c3ccc(Cl)cc3)c(-c3ccncc3)c2C1` [Example 3, 1-[2-(4-chlorophenyl)-3-(pyridin-4-yl)-6,7-dihydropyrazolo[1,5-a]pyrazin-5(4H)-yl]prop-2-en-1-one], for which the 50% inhibitory concentration (IC50) in the assay with BA/F3 (insSVD) cells (setting [4]) is 13.2 nM; in the assay with BA/F3 (insSVD) cells (Table 3b, Ba/F3 EGFR-insSVD), 13.2 nM; in assay [1] (setting [5]) it was 0.139 nM; in assay [1] (setting [6]), 0.139 nM; in assay [2] (Table 2a, D770_N771insNPG), 0.324 nM; in assay [2] (setting [7]), 0.324 nM. The IC50 in assay [3] (setting [4]) and in assay [3] (setting [8]) was 108 nM throughout.
With `C=CC(=O)N1CCn2nc(-c3ccc(F)cc3)c(-c3ccncc3)c2C1` [Example 1, 1-[2-(4-fluorophenyl)-3-(pyridin-4-yl)-6,7-dihydropyrazolo[1,5-a]pyrazin-5(4H)-yl]prop-2-en-1-one], the IC50 in the assay on BA/F3 (insSVD) cells (setting [4]) is 34.6 nM; in the assay on BA/F3 (insSVD) cells (Table 3b, Ba/F3 EGFR-insSVD), 34.6 nM; in assay [1] (setting [5]), 0.618 nM; in assay [1] (setting [6]), 0.618 nM; in assay [2] (Table 2a, D770_N771insNPG), 0.953 nM; in assay [2] (setting [7]), 0.953 nM. In addition, the IC50 in assay [3] (setting [4]) and in assay [3] (setting [8]) was 119 nM each time.
As for `C=CC(=O)N1CCn2nc(-c3ccc(Cl)c(F)c3)c(-c3ccncc3)c2C1` [Example 36, 1-[2-(4-chloro-3-fluorophenyl)-3-(pyridin-4-yl)-6,7-dihydropyrazolo[1,5-a]pyrazin-5(4H)-yl]prop-2-en-1-one], the IC50 with BA/F3 (insSVD) cells (setting [4]) was found to be 17.9 nM; in assay [1] (setting [5]), 0.321 nM; in assay [2] (Table 2a, D770_N771insNPG), 1.13 nM; in assay [3] (setting [4]), 126 nM.
For the compound `CC(C)N(C)C/C=C/C(=O)N1CCn2nc(-c3ccc(F)cc3)c(-c3ccnc(NC(=O)C4CC4)c3)c2C1` [Example 6, N-{4-[2-(4-fluorophenyl)-5-{(2E)-4-[methyl(propan-2-yl)amino]but-2-enoyl}-4,5,6,7-tetrahydropyrazolo[1,5-a]pyrazin-3-yl]pyridin-2-yl}cyclopropanecarboxamide], the half-maximal inhibitory concentration (IC50) in the assay on BA/F3 (insSVD) cells (setting [4]) was 22.3 nM; in the assay with BA/F3 (insSVD) cells (Table 3b, Ba/F3 EGFR-insSVD), 22.3 nM; in assay [1] (setting [5]), 0.326 nM; in assay [1] (setting [6]), 0.326 nM; in assay [2] (Table 2a, D770_N771insNPG) it was 0.407 nM; in assay [2] (setting [7]) it was 0.407 nM. In addition, the IC50 in assay [3] (setting [4]) and in assay [3] (setting [8]) was 207 nM throughout.
On to `C=CC(=O)N1CCn2nc(-c3ccc4sccc4c3)c(-c3ccncc3)c2C1` [Example 192, 1-[2-(1-benzothiophen-5-yl)-3-(pyridin-4-yl)-6,7-dihydropyrazolo[1,5-a]pyrazin-5(4H)-yl]prop-2-en-1-one], for which the half-maximal inhibitory concentration (IC50) with BA/F3 (insSVD) cells (setting [4]) was 148 nM; in assay [1] (setting [5]), less than 0.0725 nM; in assay [2] (Table 2a, D770_N771insNPG), 0.0916 nM; in assay [3] (setting [4]), 39.7 nM.
As to `C=CC(=O)N1CCn2nc(-c3ccc(F)cc3)c(-c3ccnc(N)c3)c2C1` [Example 10, 1-[3-(2-aminopyridin-4-yl)-2-(4-fluorophenyl)-6,7-dihydropyrazolo[1,5-a]pyrazin-5(4H)-yl]prop-2-en-1-one], the IC50 with BA/F3 (insSVD) cells (setting [4]) came to 46.5 nM; with BA/F3 (insSVD) cells (Table 3b, Ba/F3 EGFR-insSVD), 46.5 nM; in assay [1] (setting [5]) it was 0.849 nM; in assay [1] (setting [6]), 0.849 nM; in assay [2] (Table 2a, D770_N771insNPG) it was 2.26 nM; in assay [2] (setting [7]) it was 2.26 nM. In addition, the IC50 in assay [3] (setting [4]) and in assay [3] (setting [8]) was 346 nM each time.
On to `CC(C)N(C)C/C=C/C(=O)N1CCn2nc(-c3ccc(F)cc3)c(-c3ccncc3)c2C1` [Example 18, (2E)-1-[2-(4-fluorophenyl)-3-(pyridin-4-yl)-6,7-dihydropyrazolo[1,5-a]pyrazin-5(4H)-yl]-4-[methyl(propan-2-yl)amino]but-2-en-1-one], for which the IC50 is 143 nM with BA/F3 (insSVD) cells (setting [4]); 143 nM with BA/F3 (insSVD) cells (Table 3b, Ba/F3 EGFR-insSVD); 0.451 nM in assay [1] (setting [5]); 0.451 nM in assay [1] (setting [6]); 1.76 nM in assay [2] (Table 2a, D770_N771insNPG); 1.76 nM in assay [2] (setting [7]). Also, the half-maximal inhibitory concentration (IC50) in assay [3] (setting [4]) was 9980 nM; in assay [3] (setting [8]) it was 0.217 nM.
Consider `C=CC(=O)N1CCn2nc(-c3ccc4cc[nH]c4c3)c(-c3ccncc3)c2C1` [Example 195, 1-[2-(1H-indol-6-yl)-3-(pyridin-4-yl)-6,7-dihydropyrazolo[1,5-a]pyrazin-5(4H)-yl]prop-2-en-1-one], for which the IC50 in the assay on BA/F3 (insSVD) cells (setting [4]) stood at 8.9 nM; in assay [1] (setting [5]) it was 0.0825 nM; in assay [2] (Table 2a, D770_N771insNPG), 0.219 nM; in assay [3] (setting [4]), 43.3 nM.
With `C=CC(=O)N1CCn2nc(-c3cccc(OC)c3)c(-c3ccncc3)c2C1` [Example 5, 1-[2-(3-methoxyphenyl)-3-(pyridin-4-yl)-6,7-dihydropyrazolo[1,5-a]pyrazin-5(4H)-yl]prop-2-en-1-one], the IC50 turned out to be 80.5 nM in the assay with BA/F3 (insSVD) cells (setting [4]); 80.5 nM with BA/F3 (insSVD) cells (Table 3b, Ba/F3 EGFR-insSVD); 2.19 nM in assay [1] (setting [5]); 2.19 nM in assay [1] (setting [6]); 1.04 nM in assay [2] (Table 2a, D770_N771insNPG); 1.04 nM in assay [2] (setting [7]). For the same compound, the IC50 in assay [3] (setting [4]) and in assay [3] (setting [8]) was 114 nM throughout.
`C=CS(=O)(=O)N1CCn2nc(-c3ccc(F)cc3)c(-c3ccncc3)c2C1` [Example 14, 5-(ethenesulfonyl)-2-(4-fluorophenyl)-3-(pyridin-4-yl)-4,5,6,7-tetrahydropyrazolo[1,5-a]pyrazine]: the IC50 in the assay with BA/F3 (insSVD) cells (setting [4]) came to 760 nM; with BA/F3 (insSVD) cells (Table 3b, Ba/F3 EGFR-insSVD) it was 760 nM; in assay [1] (setting [5]) it was 0.406 nM; in assay [1] (setting [6]) it was 0.406 nM; in assay [2] (Table 2a, D770_N771insNPG), 0.867 nM; in assay [2] (setting [7]), 0.867 nM. For the same compound, the IC50 in assay [3] (setting [4]) and in assay [3] (setting [8]) was 983 nM throughout.

The values above are taken from patent US20260365653A1, “IRREVERSIBLE MUTEGFR INHIBITORS” (Bayer Aktiengesellschaft, priority 2022, published 2026).
